Assay results taken from patent publication US9888690B2, “Insecticidal compounds from Nothapodites foetida and process for the extraction thereof” (priority 2011, dated 2018).
In brackets after ≈: the same amount, converted by molar mass. Read-outs that look alike come from different tables or passages of the source.

What was measured:
[1] = system: Mycobacterium tuberculosis Ra; test: XTT assay, anti-mycobacterial activity; type: cell-based, M. tuberculosis H37Ra (ATCC 25177); settings: for inhibition at 100 µg/mL: inhibition at 100 μg/ml, 8th day of incubation
Experimental: M. tuberculosis H37Ra (ATCC 25177) cells, obtained from MTCC (Chandigarh, India), were grown to logarithmic phase (O.D, 0.595˜1.0) in a defined medium (M. pheli medium) under aerobic conditions in a shaker incubator (Thermo Electron Corporation Model 481) maintained at 150 rpm and 37° C. After growth, the culture was sonicated for 2 min using water bath sonicator. Sonicated cells were used for inoculation in micro plate wells. […] of culture containing ˜1×10^5 cells/ml was added to each well of 96 well plates. Camptothecanoid 1, 2 and 3 and Phthalate, […], dissolved in DMSO (Sigma), were added to the wells to attain a final concentration of 100 µg/ml respectively for screening. Then, the plate was incubated in a CO2 incubator at 37° C. The plate was taken out on the 8th day of incubation to measure the viable cell counts. The optical density of the culture was measured before addition of XTT (Sigma) at 470 nm which was served as a blank for the MIC calculations. XTT, 200 µM, was added and incubated for 20 min at 37° C. after shaking for 1 min. After 20 min of incubation, 60 µM Menadione (Sigma) was added and incubated at 37° C. for 40 min after mixing of 1 min. Finally, the optical density of the suspension was measured at 470 nm by using microplate reader. Isoniazid (Sigma) was used as a positive control.

THP 1 cell line = test: MTT cell proliferation assay; type: cell-based; settings: Homo sapiens, read-out: MTT assay against THP 1 cell line % Inhibition
Experimental: Camptothecanoid 1, 2 and 3 and Phthalate were tested for their inhibitory effect on THP-1 cells. About 10,000 cells were taken per well in 96-well tissue culture plates and treated with test samples at 100 μg/ml for 72 h. Vehicle control (DMSO, 1%) and positive control (Paclitaxel, 100 μg/ml) was run simultaneously. Cell proliferation was assessed with 10 μl from 5 mg/ml stock solution of tetrazolium salt (MTT) dissolved in cell culture medium and subsequently incubated for additional 1 h at 37° C., 5% of CO2 and 95% humidity in incubator. The violet coloured formazan crystals formed were solubilized in 200 μl of isopropanol and incubated for another 4 h. The optical density was read on a micro plate reader (Spectramax plus384 plate reader, Molecular Devices Inc) at 490 nm filter against a blank prepared from cell-free wells. Absorbance given by cells treated with the carrier DMSO alone was taken as 100% cell growth (Table 2).

[2] = system: Sitophilus oryzae and Rhizopertha dominica; test: whole plant or invertebrate; type: in vivo
Experimental: The bioefficacy of the extracts were screened against S. oryzae and R. dominica on wheat at 1000 ppm. Required quantity of the extract dissolved in 6 ml of the solvent was pipetted over 60 gm wheat, taken in a 500 ml beaker. The grain was stirred with a glass rod to obtain uniform application. The control grain received the solvent alone. The treated grain was spread on petridish and kept overnight (12 hrs) for the solvent to evaporate. The 60 gm grain was divided into three lots of 20 gm each, taken in test tubes 25 mm diameter and 95 mm long.
Fifteen unsexed adults, 1-2 weeks old, of the rice weevil, Sitophilus oryzae and the lesser grain borer, Rhizopertha dominica were seeded into the tubes separately. The tubes were covered with muslin held by rubber bands. The mortality of the test insects was recorded after 1, 3, 7, 14 and 21 days. After the last count, the insects were discarded and the grain incubated to obtain the F1 progeny. The number of emerging progeny was recorded every second day till the emergence was complete. The progeny/adult day was calculated by Kazmaier et. al method. The progeny/adult day corrects for the reduction in the number of progeny due to adult mortality. A significant reduction in the progeny/adult day compared to the control indicates Insect Growth Regulating (IGR) activity, which is presented in Tables 1, 2 and 3.
Camptothecin obtained from Sigma Aldrich was assayed on wheat against S. oryzae and R. dominica as in example 1.

[3] = THP-1, inhibition at 100 μg/ml, 72 h

Work on `CC[C@H](OC1OC(CO)C(O)C(O)C1O)c1cc2n(c(=O)c1C)Cc1cc3ccccc3nc1-2` (stereo partly shown) [Camptothecanoid 1] yielded an inhibition at 100 µg/mL [1] of 48.3% and an inhibition at 100 µg/mL (THP 1 cell line; THP-1, 72 h) of 70.9%.

`CC[C@](O)(C(=O)O)c1cc2n(c(=O)c1COC(C)=O)Cc1cc3ccccc3nc1-2` [Camptothecanoid 2] gave an inhibition at 100 µg/mL [1] of 88.4% and an inhibition at 100 µg/mL (THP 1 cell line; THP-1, 72 h) of 87.5%.

Compound `CC[C@](O)(C(=O)O)c1cc2n(c(=O)c1COC(C)=O)Cc1cc3c(OC)cccc3nc1-2` [Camptothecanoid 3] has an inhibition at 100 µg/mL [1] of 59% and an inhibition at 100 µg/mL (THP 1 cell line; THP-1, 72 h) of 90.2%.

In the case of `CC[C@@]1(O)C(=O)OCc2c1cc1n(c2=O)Cc2cc3ccccc3nc2-1` [Camptothecin], the “No. of F1 progeny” value ([2]; 6.25 ppm on wheat) is reported as 00, the “No. of F1 progeny” value ([2]; 12.50 ppm on wheat) is reported as 00 and the “adult mortality (in words)” value ([2]; 12.50 ppm on wheat) is reported as “no adult mortality”. The “No. days for 100% kill” value ([2]; 25 ppm on wheat) was 21 days, the “No. of F1 progeny” value ([2]; 25 ppm on wheat) was 00 and the “No. days for 100% kill” value ([2]; 50 ppm on wheat) was 14 days. For the same compound, the “No. of F1 progeny” value ([2]; 50 ppm on wheat) was 00, the “No. days for 100% kill” value ([2]; 75 ppm on wheat) was 7 days and the “No. of F1 progeny” value ([2]; 75 ppm on wheat) was 00. The “No. days for 100% kill” value ([2]; 100 ppm on wheat) was 3 days, the “No. of F1 progeny” value ([2]; 100 ppm on wheat) was 00 and the mortality at 6.25 ppm ([2]; Sitophilus oryzae) was 0%. For the same compound, the mortality at 12.5 ppm ([2]; Sitophilus oryzae) was 0%, the mortality at 25 ppm ([2]; Sitophilus oryzae) was 100% and the mortality at 50 ppm ([2]; Sitophilus oryzae) was 100%. It also gave a mortality at 75 ppm ([2]; Sitophilus oryzae) of 100%, a mortality at 100 ppm ([2]; Sitophilus oryzae) of 100% and an inhibition at 12.5 ppm ([2]; Sitophilus oryzae, read-out: inhibition of F1 progeny) of 100%.

`NNC(=O)c1ccncc1` [Isoniazid] gave an IC90 ([1]; read-out: IC90, XTT assay Mycobacterium tuberculosis Ra) of 0.05 µg/mL (≈ 0.365 µM).

For `CC(=O)O[C@H]1C(=O)[C@@]2(C)[C@H]([C@H](OC(=O)c3ccccc3)[C@]3(O)C[C@H](OC(=O)[C@H](O)[C@@H](NC(=O)c4ccccc4)c4ccccc4)C(C)=C1C3(C)C)[C@]1(OC(C)=O)CO[C@@H]1C[C@@H]2O` [Paclitaxel], the inhibition at 100 µg/mL (THP 1 cell line; [3]) was 61%.

For `CCCCCCCC(CC)COC(=O)c1ccccc1C(=O)OCC(CC)CCCCCCC` (stereo not shown) [Phthalate], the inhibition at 100 µg/mL [1] was 45.6% and the inhibition at 100 µg/mL (THP 1 cell line; [3]) was 20.1%.
